The text below walks through data of US4950675A, “Pyridine di-mevalono-lactones as inhibitors of cholesterol biosynthesis” (Warner-Lambert Company, priority 1988, dated 1990).

Where a name gives a salt, the structure may show the parent alone.

The test system of one test is cholesterol synthesis. Description: AICS screen: plasma [14C]cholesterol after oral dosing of cholestyramine-fed rats (inhibition of cholesterol synthesis). In kind it is in vivo. The conditions noted are these: male Sprague-Dawley rats fed 5% cholestyramine; for inhibition at 1 mg/kg: Rattus norvegicus. The protocol:
The ability of compound s of the present invention to inhibit the biosynthesis of cholesterol was also measured by a method (designated AICS screen) which utilizes the procedure described by A. W. Alberts et al, Proc. Natl. Acad. Sci., (1980), 77, pp 3957-3961.
In this method male Sprague-Dawley rats (200 g body weight) previously fed 5% cholestyramine for three days were randomly divided into groups (N=5/group) and given a single dose of vehicle (controls) or compound by an oral gavage at the indicated doses. One hour after drug dosing, all rats were injected intraperitoneally with sodium[1-^14 C]-acetate (18.75 μCi/rat in 0.2 ml saline). After 50 minutes, blood samples were taken, plasma obtained by centrifugation, and plasma [^14 C] cholesterol measured after saponification and extraction.

The target of test [1] is sterol synthesis by rat liver homogenate (HMG-CoA reductase). The test is described as follows: CSX screen ("CSI" in Table 2): inhibition of sterol synthesis from 14C-acetate in rat liver homogenate. The format is biochemical. Particulars: 50% inhibition of sterol synthesis over a one-hour period. On the procedure:
The ability of compound s of the present invention to inhibit the biosynthesis of cholesterol was measured by a method (designated CSX screen) which utilizes the procedure described by R. E. Dugan, et al, Archiv. Biochem. Biophys., (1972), 152, 21-27. In this method, the level of HMG-CoA enzyme activity in standard laboratory rats is increased by feeding the rats a chow diet containing 5% cholestyramine for four days, after which the rats are sacrificed.
The rat livers are homogenized, and the incorporation of […] into nonsaponifiable lipid by the rat liver homogenate is measured. The micromolar concentration of compound required for 50% inhibition of sterol synthesis over a one-hour period is measured, and expressed as an IC50 value.

The term inhibition denotes the relative decrease from the control value, in per cent. For the compound `CCc1nc(CC)c(/C=C/C2CC(O)CC(=O)O2)c(-c2ccc(F)cc2)c1/C=C/C1CC(O)CC(=O)O1` (stereo not drawn) [6,6'-[2,6-diethyl-4-(4-fluorophenyl)-3,5-pyridinediyl]di[2,1-ethenediyl]bis[4α,6β(E)][tetrahydro-4-hydroxy-2H -pyran-2-one]], in the test on cholesterol synthesis (Table 1, single oral gavage), the inhibition at 1 mg/kg is -3%.
What is called IC50 is the concentration that gives 50% inhibition. High values mean weaker potency in that assay, low ones greater potency in that assay. In test [1], `CCc1nc(CC)c(/C=C/C(O)CC(O)CC(=O)O)c(-c2ccc(F)cc2)c1/C=C/C(O)CC(O)CC(=O)O` (stereo not drawn) [[R*,S*(E)]7,7'-[2,6-diethyl-4-(4-fluorophenyl)-3,5-pyridinediyl]bis[3,5-dihydroxy-6-heptenoic acid, disodium salt]] returned an IC50 of 32 nM. For the same compound, in the test on cholesterol synthesis (Table 2, single oral gavage), the inhibition at 1 mg/kg is -16%.
Consider `CC(C)c1nc(C(C)C)c(/C=C/C2CC(O)CC(=O)O2)c(-c2ccc(F)cc2)c1/C=C/C1CC(O)CC(=O)O1` (stereo not drawn) [6,6'-[[2,6-bis(1-methylethyl)-4-(4-fluorophenyl)-3,5-pyridinediyl]di-1,2-ethenediyl]bis [4α,6B(E)] tetrahydro-4-hydroxy-2H-pyran-2-one]], for which, in the test on cholesterol synthesis (Table 1, single oral gavage), the inhibition at 1 mg/kg was -65%.
`CC(C)c1nc(C(C)C)c(C=CC(O)CC(O)CC(=O)[O-])c(-c2ccc(F)cc2)c1C=CC(O)CC(O)CC(=O)[O-].[Na+].[Na+]` (stereo not drawn) [[R*,S*(E)]-7,7'-[2,6-bis(1-methylethyl)-2,4-(4-fluorophenyl)-3,5-pyridinediyl]bis [3,5-dihydroxy-6-heptenoio acid, disodium salt]] showed a 50% inhibitory concentration (IC50) in test [1] of 5.6 nM. Moreover, in the test with cholesterol synthesis (Table 2, 1.0 mg/kg, single oral gavage), the “AICS % Inhibition of Cholesterol Synthesis” value is reported as -21%.
